Assay results from ChEMBL document CHEMBL5303304, “EUbOPEN Chemogenomics Library - IncuCyte” (2023).

Experiments:
Format in all cases: toxicity, cell-based
[1] = system: Fibroblast; experiment: Incucyte cell viability with human fibroblast; conditions: 10 µM, compound concentration 10 uM
[2] = system: HEK-293T; experiment: Incucyte cell viability with HEK293T; conditions: human, 10 µM, compound concentration 10 uM
[3] = system: U2OS; experiment: Incucyte cell viability with U2OS; conditions: human, 10 µM, compound concentration 10 uM
Also: unitless GR value; below 1 slowed growth and below 0 cell loss.

| Compound | Growth Rate ([1]; 0 h, replicate number 1) | Growth Rate ([1]; 24 h, replicate number 1) | Growth Rate ([1]; 24 h, replicate number 2) | Growth Rate ([2]; 0 h, replicate number 2) | Growth Rate ([2]; 6 h, replicate number 1) | Growth Rate ([2]; 6 h, replicate number 2) | Growth Rate ([2]; 12 h, replicate number 1) | Growth Rate ([2]; 12 h, replicate number 2) | Growth Rate ([2]; 18 h, replicate number 1) | Growth Rate ([2]; 18 h, replicate number 2) | Growth Rate ([2]; 24 h, replicate number 1) | Growth Rate ([2]; 24 h, replicate number 2) | Growth Rate ([3]; 12 h, replicate number 1) | Growth Rate ([3]; 18 h, replicate number 1) | Growth Rate ([3]; 18 h, replicate number 2) | Growth Rate ([3]; 24 h, replicate number 1) | Growth Rate ([3]; 24 h, replicate number 2) | Growth Rate ([1]; 12 h, replicate number 2) | Growth Rate ([3]; 6 h, replicate number 2) | Growth Rate ([3]; 12 h, replicate number 2) | also measured |
| --- | --- | --- | --- | --- | --- | --- | --- | --- | --- | --- | --- | --- | --- | --- | --- | --- | --- | --- | --- | --- | --- |
| CS(=O)(=O)c1ccc(-c2cnc(N)c(C(=O)Nc3ccccc3)n2)cc1 | -0.93 | 0.85 | 0.74 | 0.8 | -0.29 | -0.17 | -0.15 | -0.14 | 0.01 | -0.07 | 0.07 | 0.05 | 0.87 | 0.77 | 0.93 | 0.88 | 0.77 | – | – | – | – |
| Cc1cc(OC2CCS(=O)(=O)CC2)cc(C)c1-c1cccc(COc2ccc(CCC(=O)O)c(F)c2)c1 | -0.63 | – | – | 0.14 | 0.99 | – | – | – | 0.99 | – | 0.94 | 0.96 | 0.88 | 0.96 | 0.99 | 0.92 | 0.87 | 0.88 | 0.78 | 0.91 | Growth Rate ([1]; 0 h, replicate number 2): 0; Growth Rate ([1]; 12 h, replicate number 1): 0.64; Growth Rate ([1]; 18 h, replicate number 1): 0.84 |
| Cn1cc(-c2ccc(-c3cncc(Cl)c3N3CCC4(CCNC4=O)CC3)cc2)cn1 | – | 0.49 | 0.8 | 0.95 | 0.13 | 0.24 | 0.3 | 0.63 | 0.34 | 0.67 | 0.5 | 0.67 | 0.59 | 0.96 | – | – | – | – | – | – | Growth Rate ([1]; 0 h, replicate number 2): -0.3; Growth Rate ([1]; 6 h, replicate number 1): 0.61; Growth Rate ([1]; 12 h, replicate number 1): 0.75; Growth Rate ([1]; 18 h, replicate number 1): 0.56; Growth Rate ([1]; 18 h, replicate number 2): 0.87; Growth Rate ([3]; 0 h, replicate number 2): 0.82; Growth Rate ([3]; 6 h, replicate number 1): 0.58 |
| CN(C)C/C=C/C(=O)Nc1ccc(C(=O)Nc2cccc(Nc3ncc(Cl)c(-c4c[nH]c5ccccc45)n3)c2)cc1 | – | – | 0.7 | -0.53 | – | – | – | – | – | – | – | – | – | 0.29 | 0.55 | 0.16 | 0.28 | – | – | 0.57 | Growth Rate ([3]; 0 h, replicate number 1): -1 |
| COc1ccc(CC[C@@H](OC(=O)[C@@H]2CCCCN2C(=O)[C@H](c2cc(OC)c(OC)c(OC)c2)C2CCCCC2)c2cccc(OCCN3CCOCC3)c2)cc1OC | -1 | 0.97 | – | -0.44 | – | – | – | 0.38 | 0.94 | 0.26 | 0.27 | 0.24 | – | – | 0.78 | – | 0.73 | 0.99 | 0.91 | 0.8 | Growth Rate ([3]; 0 h, replicate number 1): -1; Growth Rate ([3]; 0 h, replicate number 2): -0.99 |
| CC(C)c1cnc(NC(=O)Cc2ccccc2)s1 | -0.99 | 0.92 | 0.99 | 1 | 0.76 | 0.51 | 0.86 | 0.69 | 0.8 | 0.68 | 0.73 | 0.69 | 0.87 | 0.77 | 0.97 | 0.89 | 0.77 | – | – | 0.72 | Growth Rate ([1]; 6 h, replicate number 2): 0.95; Growth Rate ([1]; 18 h, replicate number 2): 1; Growth Rate ([3]; 0 h, replicate number 2): 0.72; Growth Rate ([3]; 6 h, replicate number 1): 0.54 |
| COc1c(-c2cn(C3CCC(=O)NC3=O)nn2)csc1C(=O)N1CCCC1 (stereo not given) | -1 | – | 0.97 | 0.78 | 0.29 | 0.71 | 0.77 | 0.89 | 0.73 | 0.9 | 0.9 | 1 | 0.85 | 0.92 | – | – | – | – | – | – | Growth Rate ([1]; 6 h, replicate number 2): 0.73; Growth Rate ([1]; 18 h, replicate number 2): 0.92; Growth Rate ([3]; 6 h, replicate number 1): 0.89 |
| Cc1cn([C@@H](C)CC#N)c(=O)c2cc(Cn3nc(C(F)F)cc3Cl)nn12 | – | 0.85 | – | 0.77 | 0.53 | 0.84 | 0.72 | 0.81 | 0.89 | 0.77 | 0.92 | 0.81 | 0.51 | 0.6 | 0.88 | 0.73 | 0.78 | 0.66 | – | 0.71 | Growth Rate ([1]; 6 h, replicate number 2): 0.71; Growth Rate ([1]; 18 h, replicate number 2): 0.99; Growth Rate ([3]; 6 h, replicate number 1): 0.19 |
| Cc1cc(OC2CCS(=O)(=O)CC2)cc(C)c1-c1cccc(COc2ccc(C(=O)O)c(F)c2)c1 | -0.85 | – | 0.92 | 0.65 | – | – | – | 0.96 | 0.96 | 0.88 | 0.9 | 0.84 | 0.61 | 0.85 | 0.77 | 0.98 | 0.75 | 0.57 | 0.65 | 0.49 | Growth Rate ([1]; 6 h, replicate number 1): 0.86; Growth Rate ([3]; 0 h, replicate number 2): 0.93; Growth Rate ([3]; 6 h, replicate number 1): 0.56 |
| COc1ccc(CC[C@@H](OC(=O)[C@H]2CCCCN2C(=O)[C@@H](c2cc(OC)c(OC)c(OC)c2)C2CCCCC2)c2cccc(OCCN3CCOCC3)c2)cc1OC | -0.89 | 0.99 | – | -0.05 | – | – | – | 0.72 | – | 0.52 | 0.74 | 0.49 | – | 0.98 | 0.99 | – | 0.87 | – | -0.94 | – | Growth Rate ([3]; 0 h, replicate number 2): -1 |
| N#Cc1ccc(COc2ccc(Br)cc2CNCCO)cn1.O=CO | – | – | 0.89 | 0.83 | – | – | – | – | 1 | – | – | – | 1 | – | – | – | – | 0.87 | – | – | Growth Rate ([1]; 6 h, replicate number 2): 0.73; Growth Rate ([1]; 12 h, replicate number 1): 0.85; Growth Rate ([1]; 18 h, replicate number 2): 0.6 |
| COc1cc(-c2cc3ncccc3c(OC[C@H]3CNC(=O)C3)n2)cc(OC)c1OC1CCOCC1.O=C(O)C(F)(F)F | 0.4 | – | 0.94 | 0.5 | 0.2 | -0.14 | 0.17 | 0.16 | 0.25 | 0.34 | 0.33 | 0.49 | 0.72 | 0.76 | 0.85 | 0.68 | 0.75 | 0.78 | 0.88 | 0.93 | Growth Rate ([1]; 6 h, replicate number 1): 0.72; Growth Rate ([1]; 6 h, replicate number 2): 0.67; Growth Rate ([1]; 18 h, replicate number 1): 1; Growth Rate ([1]; 18 h, replicate number 2): 0.92; Growth Rate ([3]; 0 h, replicate number 1): -0.63 |
| CN(C)C(=O)c1cc2cnc(Nc3ccc(N4CCN(CCCCNC(=O)COc5cccc6c5C(=O)N(C5CCC(=O)NC5=O)C6=O)CC4)cn3)nc2n1C1CCCC1 (stereo not given) | -1 | – | – | 0.78 | 0.52 | 0.46 | – | 0.81 | 0.88 | 0.67 | 1 | 0.81 | – | 0.93 | – | 0.95 | – | – | 0.65 | – | Growth Rate ([3]; 0 h, replicate number 1): -1; Growth Rate ([3]; 0 h, replicate number 2): 0.74 |
| CN(C)[C@H]1CC[C@H](Nc2ncc3ncnc(Nc4ccc(F)c(Cl)c4)c3n2)CC1 | – | 0.14 | -0.13 | -1 | -0.21 | – | -0.11 | – | 0.12 | – | 0.23 | – | 0.48 | 0.38 | 0.48 | 0.45 | 0.47 | -0.1 | 0.45 | 0.5 | Growth Rate ([1]; 0 h, replicate number 2): -1; Growth Rate ([1]; 6 h, replicate number 1): 0.74; Growth Rate ([1]; 6 h, replicate number 2): 0.19; Growth Rate ([1]; 12 h, replicate number 1): 0.23; Growth Rate ([1]; 18 h, replicate number 1): 0.14; Growth Rate ([1]; 18 h, replicate number 2): -0.19; Growth Rate ([3]; 0 h, replicate number 1): -1; Growth Rate ([3]; 0 h, replicate number 2): 0.58 |
